The record followed here is patent publication EP3006026A1, “PHARMACEUTICAL COMPOSITION FOR TREATING ANXIETY CONTAINING L-THEANINE AND BAICALEIN” (FB HEALTH S.P.A., priority 2014, dated 2016).

One data set concerns murine model of anxiety. Kind of data set: elevated maze plus (EPM) test, murine model of anxiety. Particulars: 60 minutes prior to maze; for percentage of time spent on the closed arms: compared to the control, 6 minutes observation; for time in percentage on the open arms: 10 mg/kg p.o. In kind it is in vivo, mice. As for the experimental part:
The activity of a combination of L-theanine and baicalein was tested in a murine model of anxiety.
The mice were assigned randomly to different treatment groups and subjected to tests in a variable order.
Diazepam (Hoffmann - La Roche) was used as reference product. The diazepam was diluted to a concentration of 1.5 mg/10 ml with deionised water (Millipore quality) containing propylene glycol 0.5% (Sigma-Aldrich). Two different doses (10 mg/kg and 25 mg/kg) of bot. baicalein and L-theanine were prepared dissolving the powder in 10 ml of deionised water with propylene glycol 0.5%. All the solutions were prepared the same day as the tests and administered orally (p.o.) in a volume of 10 ml/kg by body weight of the mice. The control animals received a solution of propylene glycol 0.5%.
The animals of the experiment were treated orally with a carrier, diazepam (1.5 mg/kg, n=8), L-theanine (10 mg/kg, 25 mg/kg, n=8), baicalein (10 mg/kg, 25 mg/kg, n=8) or L-theanine + baicalein, in a ratio 1/1 (10 mg/kg, 25 mg/kg, n=8), 60 minutes prior to evaluation in the maze.
Anxiolytic activity was evaluated using the elevated maze plus (EPM) test. [ ]. The maze was composed of two open arms (31 cm x 5 cm x 1 cm) and two closed arms (31 cm x 5 cm x 15 cm) that extended from a central platform (5 cm x 5 cm) raised to a height of 40 cm from the floor. On the wooden base frame, the closed arms were made of opaque grey plastic, while the open arms were made of the same material with only one slightly raised edge. The EPM was indirectly illuminated by three 40W bulbs.
(§1) The mice were placed individually at the centre of the maze facing a closed arm and the number of entries and the time spent in the closed and open arms during an observation period of 6 minutes was recorded. Entries to the arms were defined as the entry of all four paws into an arm [ ]. The time in percentage spent on the open arms (100 x open/total time) was calculated for each animal. We also used the open field test to evaluate possible sedative or stimulating activity of the animals [ ]. The open field consisted of a rectangular opaque grey plastic arena (width 30 cm, length 27 cm, height 30 cm) and was illuminated by six 40W bulbs. The floor of the arena was divided into 6 equidistant rectangles to evaluate the number of times the lines were crossed. Groups of 8 mice were treated with diazepam (1.5 mg/kg, 3 mg/kg p.o.), L-theanine (25 mg/kg, 50 mg/kg n=8), baicalein (25 mg/kg, 50 mg/kg, n=8) or L-theanine + baicalein, in a 1/1 ratio (25 mg/kg, 50 mg/kg, n=8) or a carrier (deionised water with propylene glycol at 0.5% p.o.). All the solutions contained propylene glycol at 0.5% as solubilising substance for diazepam. 60 minutes after oral administration, each mouse was placed at the centre of the arena and recorded for 5 minutes.
The EPM and the open field test were both video recorded using a high resolution video camera WV-CP244 (Panasonic).
Statistical analysis of the data was performed using one-way analysis of variance (ANOVA) followed by the Student-Newman-Keuls multiple comparison test. In all cases the differences were considered significant if p < 0.05.

In a further data set the test system is mice. Kind of data set: open field test for sedative or stimulating activity. The following applies: 60 minutes after administration, recorded 5 minutes. The class given is in vivo. On the procedure: as §1, with “Groups of 8 mice were treated with diazepam (1.5 mg/kg, 3 mg/kg p.o.), L-theanine (25 mg/kg, 50 mg/kg n=8), baicalein (25 mg/kg, 50 mg/kg, n=8) or L-theanine + baicalein, in a 1/1 ratio (25 mg/kg, 50 mg/kg, n=8) or a carrier (deionised water with propylene glycol at 0.5% p.o.). All the solutions contained propylene glycol at 0.5% as solubilising substance for diazepam.” left out
The EPM and the open field test were both video recorded using a high resolution video camera WV-CP244 (Panasonic). The videos were analysed using the TopScan Top View Animal Behaviour Analyzing System (version 1.00; Clever Sys Inc.) by an impartial person who has no knowledge of the treatment. […]

Each structure is given as a SMILES string.

`CN1C(=O)CN=C(c2ccccc2)c2cc(Cl)ccc21` [diazepam]: in the data set with murine model of anxiety (diazepam 1.5 mg/kg p.o.), the “number of entries to the open arms” value is “greater” and the “percentage of time spent on the closed arms” value (“percentage of time spent” for short) is “significant increase”. For the same compound, in the data set on mice (1.5 mg/kg p.o.), the “sedation in the open field test” value is listed as “caused significant sedation”. For the same compound, the “sedation in the open field test” value in the data set with mice (3 mg/kg p.o.) was “caused significant sedation”.
In the case of `O=c1cc(-c2ccccc2)oc2cc(O)c(O)c(O)c12` [baicalein, 5,6,7-trihydroxy-2-phenyl-chromen-4-one], the “time in percentage on the open arms” value with murine model of anxiety is listed as “did not show any increase”. Further, the “percentage of time spent” value with murine model of anxiety (25 mg/kg p.o.) is “significant increase”.
With `CCNC(=O)CC[C@H](N)C(=O)O` [L-theanine, N-ethyl-L-glutamine], the “time in percentage on the open arms” value in the data set with murine model of anxiety is listed as “did not show any increase”. In addition, the “percentage of time spent” value in the data set on murine model of anxiety (25 mg/kg p.o.) is on record as “significant increase”.
